System: not given
Test: not given
Settings: not given

Structure (SMILES) | melting point [°C]
CC(C)(C)Oc1ccc(OC(=O)N2CCOCC2)cc1 [Example 87, Morpholine-4-carboxylic acid 4-tert-butoxy-phenyl ester] | 128.8 to 129.5
CN(C(=O)On1ccnn1)c1ccccc1 [Example 144, Methyl-phenyl-carbamic acid [1,2,3]triazol-1-yl ester] | 105 to 106

Molecular target: T1, Hormone-sensitive lipase (HSL) (Homo sapiens, UniProt Q05469)
T1 sequence (Q05469 1-1076): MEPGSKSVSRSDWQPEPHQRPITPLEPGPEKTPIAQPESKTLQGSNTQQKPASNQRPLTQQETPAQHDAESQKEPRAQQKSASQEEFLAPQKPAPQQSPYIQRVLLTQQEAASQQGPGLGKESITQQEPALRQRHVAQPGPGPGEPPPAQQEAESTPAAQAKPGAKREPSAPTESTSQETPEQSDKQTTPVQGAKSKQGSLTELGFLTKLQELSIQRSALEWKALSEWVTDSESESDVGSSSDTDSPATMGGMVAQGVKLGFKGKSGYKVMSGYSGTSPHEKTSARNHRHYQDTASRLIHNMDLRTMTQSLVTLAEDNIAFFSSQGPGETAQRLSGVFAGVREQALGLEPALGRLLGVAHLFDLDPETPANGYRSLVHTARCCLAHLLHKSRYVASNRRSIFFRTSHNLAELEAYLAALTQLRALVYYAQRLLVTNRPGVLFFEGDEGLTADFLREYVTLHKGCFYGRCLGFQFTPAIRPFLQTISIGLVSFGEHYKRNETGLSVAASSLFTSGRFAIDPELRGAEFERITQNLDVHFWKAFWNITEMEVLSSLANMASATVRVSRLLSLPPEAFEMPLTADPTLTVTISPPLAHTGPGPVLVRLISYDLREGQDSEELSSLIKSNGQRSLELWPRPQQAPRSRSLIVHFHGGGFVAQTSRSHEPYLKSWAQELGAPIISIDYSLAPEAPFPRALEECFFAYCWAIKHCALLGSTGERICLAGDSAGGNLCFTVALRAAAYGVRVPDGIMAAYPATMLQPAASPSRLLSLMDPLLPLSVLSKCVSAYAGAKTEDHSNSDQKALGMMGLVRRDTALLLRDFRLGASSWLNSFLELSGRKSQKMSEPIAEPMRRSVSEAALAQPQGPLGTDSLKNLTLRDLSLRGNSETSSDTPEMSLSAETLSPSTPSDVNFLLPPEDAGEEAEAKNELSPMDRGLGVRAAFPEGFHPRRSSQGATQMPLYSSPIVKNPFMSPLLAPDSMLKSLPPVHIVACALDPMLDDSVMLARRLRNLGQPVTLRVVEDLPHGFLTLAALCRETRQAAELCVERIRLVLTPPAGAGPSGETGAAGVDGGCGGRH
Test: biochemical
Settings: 10 μM sample concentration; percent activity relative to a non-inhibited sample (no compound)
Description: Materials. The Hormone-sensitive lipase was provided by Dr. Cecilia Holm, from Lund University Sweden or produced and purified by Novo Nordisk (NN) using the reagents and protocols used by Dr. Holm. […] All other reagents are of commercial grade and obtained from various commercial sources.
BSA is added as product receptor. The transfer of the fluorochrome from the lipid phase to the water (BSA) phase changes the fluorescent properties of the fluorochrome. The changes can be monitored on a fluorimeter with an excitation wavelength of 450 nm and an emission wavelength of 545 nm.
Compound and HSL (20 μL compound, 10 μL enzyme and 70 μL PED-BSA buffer) is pre-incubated for 30 min at 25° C. before addition of substrate (100 μL). Amount of formed product is measured after 120 min incubation at 37° C.

Structure (SMILES) | Test 3190.1 HSL_FL % ACTIVITY All [%]
CN(C(=O)Oc1ccc(OC(F)(F)C(F)(F)F)cc1)c1ccccc1 [Example 20] | 51
O=C(Oc1ccc(Oc2ccc3c(C(F)(F)F)cc(C(F)(F)F)nc3n2)cc1)N1CCOCC1 [Example 90, Morpholine-4-carboxylic acid 4-(5,7-bis-trifluoromethyl-[1,8]naphthypyridin-2-yloxy)-phenyl ester] | 24

Same assay, conditions: 10 μM sample concentration; percent activity relative to a non-inhibited sample (no compound); read-out: Test 3190.1 HSL_FL % ACTIVITY All

Structure (SMILES) | activity at 10 µM [%]
CCN(C(=O)Oc1ccc(Oc2ccc(C(F)(F)F)cc2)cc1)c1ccccc1 [Example 54, Ethyl-phenyl-carbamic acid 4-(4-trifluoromethyl-phenoxy)-phenyl ester] | 52
O=C(Oc1ccc(Oc2ccc(C(F)(F)F)cn2)cc1)N1CCc2ccccc21 [Example 62, 2,3-Dihydro-indole-1-carboxylic acid 4-(5-trifluoromethyl-pyridin-2-yloxy)-phenyl ester] | 88
Cc1c(Cc2ccccc2)c(=O)oc2cc(OC(=O)N3CCCc4ccccc43)ccc12 [Example 73, 3,4-Dihydro-2H-quinoline-1-carboxylic acid 3-benzyl-4-methyl-2-oxo-2H-chromen-7-yl ester] | 39
COc1ccc(OC)c(-c2c(C)c3ccc(OC(=O)N4CCCc5ccccc54)cc3oc2=O)c1 [Example 81, 3,4-Dihydro-2H-quinoline-1-carboxylic acid 3-(2,5-dimethoxy-phenyl)-4-methyl-2-oxo-2H-chromen-7-yl ester] | 36
O=C(Oc1ccc(Oc2c(Cl)cncc2Cl)cc1)N1CCOCC1 [Example 85, Morpholine-4-carboxylic acid 4-(3,5-dichloro-pyridin-4-yloxy)-phenyl ester] | 88
CC(C)(C)Oc1ccc(OC(=O)N2CCOCC2)cc1 [Example 87, Morpholine-4-carboxylic acid 4-tert-butoxy-phenyl ester] | 48

Same assay, conditions: read-out: Test 3190.1 HSL_FL % ACTIVITY All

Structure (SMILES) | activity at 10 µM [%]
CN(C(=O)Oc1ccc(OC(C)(C)C)cc1)c1ccccc1 [Example 11, Methyl-phenyl-carbamic acid 4-tert-butoxy-phenyl ester] | 17
CN(C(=O)Oc1ccc(-c2ccc(Br)cc2)cc1)c1ccccc1 [Example 24, Methyl-phenyl-carbamic acid 4′-bromo-biphenyl-4-yl-ester] | 30
COc1ccc(-c2c(C)c3ccc(OC(=O)N(C)c4ccccc4)cc3oc2=O)cc1 [Example 46, Methyl-phenyl-carbamic acid 3-(4-methoxy-phenyl)-4-methyl-2-oxo-2H-chromen-7-yl ester] | 43
Cc1c(-c2ccccc2)c(=O)oc2cc(OC(=O)N(C)c3ccccc3)ccc12 [Example 47, Methyl-phenyl-carbamic acid 4-methyl-2-oxo-3-phenyl-2H-chromen-7-yl ester] | 42
COc1ccc(OC)c(-c2c(C)c3ccc(OC(=O)N(C)c4ccccc4)cc3oc2=O)c1 [Example 48, Methyl-phenyl-carbamic acid 3-(2,5-dimethoxy-phenyl)-4-methyl-2-oxo-2H-chromen-7-yl ester] | 15
CN(C(=O)Oc1ccc(Oc2ccc(C(F)(F)F)cn2)cc1)C1CCCCC1 [Example 59, Cyclohexyl-methyl-carbamic acid 4-(5-trifluoromethyl-pyridin-2-yloxy)-phenyl ester] | 16
CN(C(=O)On1ccnn1)c1ccccc1 [Example 144, Methyl-phenyl-carbamic acid [1,2,3]triazol-1-yl ester] | 25

Molecular target: T1, Hormone-sensitive lipase (HSL)
Test: Test 2848.2: high-volume screening assay, para-nitrophenyl butyrate (p-NPB) substrate
Format: biochemical
Settings: UV-abs 405 nm, 20 min room temp, % Eff (% Inhibition)
From the text: (§1) Materials. The Hormone-sensitive lipase was provided by Dr. Cecilia Holm, from Lund University Sweden or produced and purified by Novo Nordisk (NN) using the reagents and protocols used by Dr. Holm. The substrates used are: ^3H-labeled triolein (TO) from Amersham, Buckinghamshire, U.K. cat No. TRA191; 5–20 Ci/mmol dissolved in toluene, triolein (Sigma, Cat. No. T-1740), fluorochrome-labeled triacylglyceride (cis-octadec-9-enoic acid 2-[12-(7-nitrobenzo[1,2,5]oxadiazol-4-ylamino)dodecanoyloxy]-1-cis-octadec-9-enoyloxymethyl-ethyl ester) prepared by Novo Nordisk (NN) by conventional methods, and 1,3-(di[^3H]-stearin), 2-(PEG-Boitin)glycerol prepared in collaboration with Amersham Pharmacia Biotech, UK and described in WO 01/073442. Phosphatidyl choline (PC) and phosphatidyl inositol (PI) are from Sigma (St Luis Mo. cat. Nos. P-3556 and P-5954 respectively). All other reagents are of commercial grade and obtained from various commercial sources.
2848.2: This high-volume screening assay uses para-nitrophenyl butyrate (p-NPB) as substrate for HSL. HSL cleaves p-NPB and the reaction is monitored as an increase in the concentration of para-nitrophenol (p-NP). p-NP can be monitored as an increase in UV-absorbance at 405 nm. The reaction is carried out at room-temp. for 20 min. The action is not stopped, but instead UV-abs is measured at a fixed time (20 min.) Due to autohydrolysis of the substrate the reaction is read at t=0 min. too and t=20 min. and the increase in Abs is calculated as the difference between the two readings. When a compound that inhibits HSL is present, it results in a relative decrease in UV-absorbance. % Eff(% Inhibition)=(S−S0Eff)/(SmaxEff−S0Eff)×100 Where S=signal in UV-abs., S0Eff=assaybuffer alone, SmaxEff=Assaybuffer with the lipase inhibitor.

Structure (SMILES) | Test 2848.2 HSL % Inhibition All [%]
O=C(Nc1ccc(Cl)cc1)n1nc(-c2ccc(Cl)cc2)cc1CCCO [Example 126, N-(4-Chlorophenyl)-3-(4-chlorophenyl)-5-(3-hydroxypropyl)-pyrazole-1-carboxamide] | 33
O=C(NCCc1ccccc1)n1nc(-c2ccc(Oc3ccccc3)cc2)cc1N1CCOCC1 [Example 127, 5-Morpholin-4-yl-3-(4-phenoxyphenyl)-pyrazole-1-carboxylic acid phenethylamide] | 58.7
O=C(Nc1ccccc1)n1ncc(S(=O)(=O)c2ccc(Cl)cc2)c1-c1ccc(Cl)cc1 [Example 128, N-Phenyl-4-(4-chlorobenzenesulfonyl)-5-(4-chlorophenyl)-pyrazole-1-carboxamide] | 33.8
O=C(Nc1ccc(Cl)c(Cl)c1)n1c(-c2ccccc2)nc2ccccc21 [Example 129, N-(3,4-Dichlorophenyl)-2-phenyl-benzimidazole-1-carboxamide] | 27
CC(C)Sc1nnc(OC(=O)N(C)C)n1-c1cccc(C(F)(F)F)c1 [Example 130, Dimethyl-carbamic acid 5-isopropylsulfanyl-4-(3-trifluoromethyl-phenyl)-4H-[1,2,4]triazol-3-yl ester] | 30.1
CN(C)C(=O)Oc1c(-c2ccccc2)cn(Cc2ccccc2)c(=O)c1-c1ccccc1 [Example 131, Dimethyl carbamic acid 1-benzyl-2-oxo-3,5-diphenyl-1,2-dihydro-pyridin-4-yl ester] | 21.6
COc1ccc2c(OC(=O)N(C)C)cc(=O)n(C)c2c1 [Example 132, Dimethyl-carbamic acid 7-methoxy-1-methyl-2-oxo-1,2-dihydro-quinolin-4-yl ester] | 19.6

Molecular target: T1, Hormone-sensitive lipase (HSL)
Test: biochemical
Format: biochemical
Settings: 10 μM concentration; percent activity relative to an un-inhibited sample (no compound)
From the text: as §1
3180.2: Assay for determination of percent inhibition by compound at 10 μM concentration.
A lipid emulsion with ^3H-Triolein and phospholipid is used as substrate with a standard cencentration of highly purified HSL. BSA is added as product receptor. The substrate is prepared as follows:
30 μl PC:PI (20 mg/ml solution of PC:PI 3:1 prepared in chloroform)+128 μl cold TO+15 μl ^3H-TO are mixed and then evaporated under a gentle stream of N2 followed by 20–30 minutes in a Speedvac to ensure the absence of residual solvent.
Compound and HSL are incubated for 30 min at 25° C. before addition of substrate. Reaction is stopped after 30 min at 25° C. by adding a mixture of methanol, chloroform and heptane at high pH. Formed product is separated from substrate by phase separation.
Results are given as percent activity relative to an un-inhibited sample (no compound).

Structure (SMILES) | Test 3180.2 HSL % ACTIVITY All [%]
Cc1c(Cc2ccccc2)c(=O)oc2cc(OC(=O)N3CCOCC3)ccc12 [Example 92] | 62

From patent publication US7067517B2 (priority 2001, dated 2006)
